Test results from ChEMBL document CHEMBL1212698, “A forward chemical genetic screen reveals an inhibitor of the Mre11-Rad50-Nbs1 complex” (Nat Chem Biol, 2008).
Calls of active or inactive are those of the source. No cut-off for these calls is given here.

Legend:
Xenopus laevis [1] = organism: Xenopus laevis; experiment: (§1) Inhibition of DNA double strand break-induced ataxia telangiectasia mutated activation in Xenopus laevis extract assessed as inhibition of H2AX phosphorylation
[2] = as §1
Xenopus laevis [3] = organism: Xenopus laevis; experiment: Inhibition of ataxia telangiectasia mutated-dependent Nbs1 phosphorylation in Xenopus laevis extract assessed as electrophoretic mobility by Western blot analysis
Xenopus laevis [4] = organism: Xenopus laevis; experiment: Inhibition of ataxia telangiectasia mutated-dependent Chk2 phosphorylation in Xenopus laevis extract assessed as electrophoretic mobility by Western blot analysis
Xenopus laevis [5] = organism: Xenopus laevis; experiment: Inhibition of DNA double strand break-induced Mre11/Rad50/Nbs1-dependent ATM autophosphorylation at Ser1981
[6] = Inhibition of dimeric recombinant ataxia telangiectasia mutated activation in Xenopus laevis extract in presence of DNA, Mre11/Rad50/Nbs1
Xenopus laevis [7] = organism: Xenopus laevis; experiment: Inhibition of ataxia telangiectasia mutated binding to streptavidin-bound biotinylated DNA in Xenopus laevis extract up to 1 mM
Xenopus laevis [8] = organism: Xenopus laevis; experiment: Inhibition of Mer11 binding to streptavidin-bound biotinylated DNA in Xenopus laevis extract up to 1 mM
Xenopus laevis [9] = organism: Xenopus laevis; experiment: Inhibition of monomeric ataxia telangiectasia mutated catalytic activity at 50 uM
Xenopus laevis [10] = organism: Xenopus laevis; experiment: Induction of FLAG-tagged Mre11/Rad50/Nbs1 dissociation in Xenopus laevis extract at 100 uM
Nucleic Acid = experiment: Inhibition of DNA tethering in Xenopus laevis extract at 10 uM; type: nucleic-acid assay
Xenopus laevis [11] = organism: Xenopus laevis; experiment: Stimulation of Mre11/Rad50/Nbs1-dependent DNA tethering in Xenopus laevis extract at 100 uM
[12] = molecular target: T1, Double-strand break repair protein MRE11 (Homo sapiens) (UniProt P49959); experiment: Inhibition of human Mre11 nuclease activity at 100 uM
T1 sequence (whole entry): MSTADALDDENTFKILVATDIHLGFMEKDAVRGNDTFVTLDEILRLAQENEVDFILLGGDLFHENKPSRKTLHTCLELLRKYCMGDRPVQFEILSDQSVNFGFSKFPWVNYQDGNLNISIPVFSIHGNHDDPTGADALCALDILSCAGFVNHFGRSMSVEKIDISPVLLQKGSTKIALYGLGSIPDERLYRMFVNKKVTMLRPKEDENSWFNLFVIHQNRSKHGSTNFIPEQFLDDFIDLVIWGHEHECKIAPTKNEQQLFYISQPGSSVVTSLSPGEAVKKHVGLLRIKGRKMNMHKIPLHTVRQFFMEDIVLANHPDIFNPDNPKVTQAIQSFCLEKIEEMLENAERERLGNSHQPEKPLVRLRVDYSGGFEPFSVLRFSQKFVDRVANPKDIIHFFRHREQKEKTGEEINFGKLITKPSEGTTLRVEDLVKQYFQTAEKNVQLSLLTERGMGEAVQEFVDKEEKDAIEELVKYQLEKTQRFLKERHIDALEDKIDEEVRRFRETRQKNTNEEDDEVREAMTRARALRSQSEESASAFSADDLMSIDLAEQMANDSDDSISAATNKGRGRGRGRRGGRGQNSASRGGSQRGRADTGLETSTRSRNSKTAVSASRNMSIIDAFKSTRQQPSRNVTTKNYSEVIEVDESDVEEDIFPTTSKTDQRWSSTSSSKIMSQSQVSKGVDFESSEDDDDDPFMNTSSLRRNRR

Homo sapiens = organism: Homo sapiens; experiment: Inhibition of human Mre11/Rad50/Nbs1-dependent DNA tethering assessed as Rad50-associated adenylate kinase activity at 0.05 to 0.8 mM
[13] = molecular target: T1, Double-strand break repair protein MRE11 (Homo sapiens); experiment: Inhibition of human Mre11 ExoIII nuclease activity at 100 uM
[14] = Cell cycle arrest in human TOSA4 cells assessed as accumulation at G2 phase at 50 uM after 24 hrs by FACS analysis; type: functional, cell-based
[15] = Cell cycle arrest in human TOSA4 cells assessed as accumulation at G2 phase at 100 uM after 24 hrs by FACS analysis; type: functional, cell-based
U2OS [16] = experiment: Cell cycle arrest in human U2OS cells assessed as accumulation at G2 phase at 100 uM after 24 hrs by FACS analysis; type: functional, cell-based
U2OS [17] = experiment: Inhibition of 10 Gy irradiation-induced G2/M check point in human U2OS cells using G2 synchronized cells at 25 uM after 24 hrs by FACS analysis; type: functional, cell-based
HEK293 [18] = experiment: Cytotoxicity against human HEK293 cells at 25 uM after 24 hrs; type: cell-based; settings: hek293, 24 h
HEK293 [19] = experiment: Cytotoxicity against human HEK293 cells at 50 uM after 24 hrs; type: cell-based; settings: hek293, 24 h
TOSA4 = experiment: Inhibition of gene conversion in human TOSA4 cells transfected with I-Sec1 expressing plasmid assessed as decrease in GFP-positive cells at 25 uM after 24 hrs by gene conversion assay; type: functional, cell-based

In the case of `O=c1cc(-c2ccccc2)[nH]c(=S)[nH]1`, the inhibition (Xenopus laevis [1]) is reported as “inactive”.
With `N=C1NC(=O)/C(=C/c2ccc(O)cc2)S1` [MIRIN] the IC50 [2] was 66 µM, the inhibition (Xenopus laevis [3]) was “Active” and the inhibition (Xenopus laevis [4]) was “Active”. For the same compound, the inhibition (Xenopus laevis [5]) was “Active”, the IC50 [6] was 12 µM and the inhibition (Xenopus laevis [7]) was “inactive”. For the same compound, the inhibition (Xenopus laevis [8]) was “inactive”, the inhibition (Xenopus laevis [9]) was “inactive” and the Activity (Xenopus laevis [10]) was “inactive”. For the same compound, the inhibition (Nucleic Acid) was “inactive”, the Activity (Xenopus laevis [11]) was “Active” and the inhibition [12] was “Active”. For the same compound, the Activity (Homo sapiens) was “inactive”, the inhibition [13] was “inactive” and the Activity [14] was “Active”. The Activity [15] was “Active”, the Activity (U2OS [16]) was “Active” and the inhibition (U2OS [17]) was “Active”. The Activity (HEK293 [18]) was “Non-toxic”, the Activity (HEK293 [19]) was “Non-toxic” and the inhibition (TOSA4) was “Active”.
